# Assay results taken from US10702507B2, “Endoparasite control agent” (THE UNIVERSITY OF TOKYO, priority 2014, dated 2020).
# Tested on: 1st-stage larvae of Haemonchus contortus
# Assay: Test for effect on motion of larvae of Haemonchus nematode
# Conditions: 20 larvae per well, 27° C./95% RH for 4 days, corrected against DMSO negative control, duplicate
# Procedure: Test for Effect on Motion of Larvae of Haemonchus Nematode (Haemonchus contortus) The compound of the present invention was prepared as solutions in 100% DMSO at the final concentrations of 50 ppm, 5 ppm, 0.5 ppm, 0.05 ppm and 0.005 ppm. DMSO stands for dimethyl sulfoxide. A larval suspension containing 1st-stage larvae of Haemonchus contortus harvested by the Baermann technique (for example, see K. Nakazono et al., “Inclination of Baermann funnel wall and efficiency of nematode extraction” Proc. Assoc. Pl. Prot. Kyushu 33: 126-130 (1987)) was placed at a density of 20 larvae per well in a test plate, and 0.5 μL/well of the test solution containing the compound of the present invention diluted to a predetermined concentration was added to the test plate. The plate was kept under the conditions of 27° C./95% RH for 4 days. In the test, ivermectin was used for the positive control and DMSO was used for the negative control. The motor ability of the larvae was examined with an automatic analyzer equipped with an LCD camera. The inhibitory effect on the motion of the larvae in each treatment plot was corrected based on the inhibitory effect in the plot treated with DMSO only for the negative control. The EC50 value was calculated from the data on the corrected inhibitory effect on the motion of the larvae, and graded according to the criteria shown below. The test was conducted in duplicate per plot.
row,SMILES,"EC50 value of corrected inhibitory effect on the motion of the larvae, graded"
1,COc1ccc(-c2ccc(CCNC(=O)c3ccccc3C(F)(F)F)c(Cl)c2)cc1 [Compound 1-53],C or higher
2,O=C(NCCc1ccc(-c2ccccc2)cc1Cl)c1ccccc1C(F)(F)F [Compound 1-54],C or higher
3,O=C(NCCc1ccc(-c2ccncc2)cc1Cl)c1ccccc1C(F)(F)F [Compound 1-55],C or higher
4,O=C(NCCc1ccc(-c2cccnc2)cc1Cl)c1ccccc1C(F)(F)F [Compound 1-56],C or higher
5,COC(CNC(=O)c1ccccc1C(F)(F)F)c1ccc(Oc2nc3ccccc3s2)cc1Cl (stereo not drawn) [Compound 1-63],C or higher
6,COC(CNC(=O)c1ccccc1C(F)(F)F)c1ccc(Oc2ccc(C(F)(F)F)cc2)cc1Cl (stereo not drawn) [Compound 1-65],C or higher
7,COC(CNC(=O)c1ccccc1C(F)(F)F)c1ccc(Oc2cccnc2)cc1Cl (stereo not drawn) [Compound 1-67],C or higher
8,O=C(NCCc1ncc(-c2ccccc2)cc1Cl)c1ccccc1C(F)(F)F [Compound 2-1],C or higher
9,O=C(NCCc1ncc(-c2ccc(C(F)(F)F)cc2)cc1Cl)c1ccccc1C(F)(F)F [Compound 2-2],C or higher
10,O=C(NCCc1ncc(-c2cccc(C(F)(F)F)c2)cc1Cl)c1ccccc1C(F)(F)F [Compound 2-3],C or higher
11,O=C(NCCc1ncc(-c2cc(F)cc(F)c2)cc1Cl)c1ccccc1C(F)(F)F [Compound 2-4],C or higher
12,COc1ccc(-c2cnc(CCNC(=O)c3ccccc3C(F)(F)F)c(Cl)c2)cc1 [Compound 2-5],C or higher
